Assay results reported in patent publication US20230278972A1, “SUBSTITUTED HALOALKYL SULFONANILIDE HERBICIDES” (FMC Corporation, priority 2020, published 2023).

Legend:
Type in all cases: in vivo
[1] = system: ragweed (common ragweed, Ambrosia artemisiifolia); test: Test A1 preemergence, ragweed
Procedure, shortened: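 Both timings started from seed in a loam-sand blend. Preemergence pots got a directed soil application immediately; postemergence pots were sprayed when seedlings had one or two leaves and stood 2–10 cm. Each compound was prepared in a non-phytotoxic solvent plus surfactant.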

[2] = system: barnyardgrass (Echinochloa crus-galli); test: Test A preemergence, barnyardgrass; conditions: Echinochloa crus-galli, pre-emergence, 240 h, Preemergence, 0 to 100 scale (0 no effect, 100 complete control), read-out: Plant response rating, Barnyardgrass
Procedure, shortened: (§1)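 Whole-plant herbicidal screen in pots of loam blended with sand. Sprays used a surfactant-containing, non-phytotoxic solvent vehicle. Timing was preemergence soil-directed at planting or postemergence at the one- to two-leaf stage (2–10 cm).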

kochia (Bassia scoparia) [3] = test: Test A postemergence, kochia; conditions: Bassia scoparia, post-emergence, 240 h, Postemergence, 0 to 100 scale (0 no effect, 100 complete control)
Procedure, shortened: as §1

[4] = system: galium (catchweed bedstraw, Galium aparine); test: Test A postemergence, galium; conditions: Galium, post-emergence, 240 h, Postemergence, 0 to 100 scale (0 no effect, 100 complete control)
Procedure, shortened: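 Barnyardgrass, wheat and galium were treated postemergence at the one- to two-leaf stage (2 to 10 cm) with chemicals formulated in non-phytotoxic solvent plus surfactant, grown in loam soil–sand pots. Pigweed was sown in the same blend and given a preemergence directed soil spray.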

kochia (Bassia scoparia) [5] = test: Test A preemergence, kochia; conditions: Bassia scoparia, pre-emergence, 240 h, Preemergence, 0 to 100 scale (0 no effect, 100 complete control), read-out: Plant response rating, Kochia
Procedure, shortened: as §1

[6] = 31 g ai/ha, 0 to 100 scale (0 no effect, 100 complete control)
[7] = 125 g ai/ha, 0 to 100 scale, 0 no effect, 100 complete control
[8] = 125 g ai/ha, visual injury, approx. 10 days

| Compound | Plant response rating, Ragweed [1, 6] | Plant response rating, Ragweed [1, 7] | other results |
| --- | --- | --- | --- |
| Cc1c(C(=O)N2CCC(F)(F)CC2)cc(N(COC(=O)C(C)(C)C)S(=O)(=O)C(F)(F)F)c(C)c1C [Compound 360] | 60 | 80 |  |
| Cc1cc(C)c(C2=NOC3OCCC23)cc1NS(=O)(=O)C(F)(F)F (stereo not drawn) [Compound 349] | 30 | 90 |  |
| CCC1ON=C(c2cc(NS(=O)(=O)C(F)(F)F)c(C)cc2C)C1CC (stereo not drawn) [Compound 343] | 10 | 60 |  |
| Cc1cc(C)c(N(COC(=O)C(C)(C)C)S(=O)(=O)C(F)(F)F)cc1C1=NOC2COCC12 (stereo not drawn) [Compound 301] | 0 | 80 |  |
| Cc1c(NS(=O)(=O)C(F)(F)F)cc(C(=O)N2CCC(F)(F)CC2)c(C)c1C [Compound 357] | 0 | 80 |  |
| COc1cc(C)c(NS(=O)(=O)C(F)(F)F)cc1C1=NOC2CCCC12 (stereo not drawn) [Compound 312] | 0 | 30 |  |
| CCOC(=O)N(c1cc(C(=O)N2CCC(c3ccccc3)CC2)c(C)cc1C)S(=O)(=O)C(F)(F)F [Compound 365] | 0 | 20 |  |
| CCOC(=O)N(c1cc(C(=O)N2CCOCC2)c(C)c(C)c1C)S(=O)(=O)C(F)(F)F [Compound 325] | 50 | 90 |  |
| COc1cc(C)c(C2=NOC3(CCCC3)C2)cc1NS(=O)(=O)C(F)(F)F [Compound 304] | 0 | 50 |  |
| Cc1c(C(=O)N2CCC(Cl)CC2)cc(N(COC(=O)C(C)(C)C)S(=O)(=O)C(F)(F)F)c(C)c1C [Compound 359] | 0 | 80 |  |
| CCC1CC(c2cc(N(COC(=O)C(C)(C)C)S(=O)(=O)C(F)(F)F)c(C)cc2C)=NO1 (stereo not drawn) [Compound 376] | 0 | 0 |  |
| Cc1c(C(=O)N2CCCCC2)cc(NS(=O)(=O)C(F)(F)F)c(Cl)c1F [Compound 333] | 0 | 70 |  |
| CCOC(=O)N(c1cc(C(=O)N2CCCCC2)c(C)c(C)c1C)S(=O)(=O)C(F)(F)F [Compound 330, Ethyl N-[(trifluoromethyl)sulfonyl]-N-[2,3,4-trimethyl-5-(1-piperidinylcarbonyl)phenyl]carbamate] | 40 | 70 |  |
| COC(=O)OCN(c1cc(C2=NOC3CCCC23)c(C)cc1C)S(=O)(=O)C(F)(F)F (stereo not drawn) [Compound 315] | 20 | 60 |  |
| Cc1cc(C)c(N(COC(=O)C(C)(C)C)S(=O)(=O)C(F)(F)F)cc1C(=O)N1CCC(C)CC1 [Compound 353] | 20 | 20 |  |
| CCC1CC(c2cc(NS(=O)(=O)C(F)(F)F)c(C)cc2C)=NO1 (stereo not drawn) [Compound 375] | 0 | 20 |  |
| Cc1cc(C)c(N(COC(=O)C(C)(C)C)S(=O)(=O)C(F)(F)F)cc1C1=NOC2CCCCCC12 (single isomer, unassigned) [Compound 294] | 0 | 30 |  |
| Cc1c(C(=O)N2CCC(F)CC2)cc(N(COC(=O)C(C)(C)C)S(=O)(=O)C(F)(F)F)c(C)c1C [Compound 361] | 20 | 90 |  |
| Cc1c(NS(=O)(=O)C(F)(F)F)cc(C(=O)N2CCOCC2)c(C)c1C [Compound 289, 1,1,1-Trifluoro-N-[2,3,4-trimethyl-5-(4-morpholinylcarbonyl)phenyl]methanesulfonamide] | 0 | 60 |  |
| CCC1ON=C(c2cc(N(COC(=O)C(C)(C)C)S(=O)(=O)C(F)(F)F)c(C)cc2C)C1CC (stereo not drawn) [Compound 344] | 0 | 0 |  |
| COCC1CC(c2cc(N(COC(=O)C(C)(C)C)S(=O)(=O)C(F)(F)F)c(C)cc2C)=NO1 (stereo not drawn) [Compound 338] | 0 | 40 |  |
| CCCCOC1CC(c2cc(NS(=O)(=O)C(F)(F)F)c(C)cc2C)=NO1 (stereo not drawn) [Compound 323] | 0 | 30 |  |
| Cc1cc(C)c(N(C(=O)OCC(C)C)S(=O)(=O)C(F)(F)F)cc1C1=NOC2CCCC12 (stereo not drawn) [Compound 299] | 0 | 30 |  |

| Compound | Plant response rating, Ragweed [1, 6] | Plant response rating, Ragweed [1, 7] | other results |
| --- | --- | --- | --- |
| Cc1cc(C2CC2)c(C2=NOC3CCCC23)cc1N(COC(=O)C(C)(C)C)S(=O)(=O)C(F)(F)F (stereo not drawn) [Compound 355] | 0 | 40 |  |
| Cc1cc(C)c(N(S(=O)(=O)C(F)(F)F)S(=O)(=O)C(F)(F)F)cc1C1=NOC2COCC12 (stereo not drawn) [Compound 296] | 50 | 90 |  |
| CCOC(=O)N(c1cc(C(=O)N2CCOCC2)c(C)cc1C)S(=O)(=O)C(F)(F)F [Compound 363] | 20 | 80 |  |
| Cc1c(NS(=O)(=O)C(F)(F)F)cc(C(=O)N2CC(C)OC(C)C2)c(C)c1C (stereo not drawn) [Compound 328] | 10 | 80 |  |
| C#CCN(C)C(=O)c1cc(NS(=O)(=O)C(F)(F)F)c(Cl)c(F)c1C [Compound 337] | 70 | 90 |  |
| Cc1c(C(=O)N2CCOCC2)cc(N(COC(=O)C(C)(C)C)S(=O)(=O)C(F)(F)F)c(C)c1C [Compound 324, [[(Trifluoromethyl)sulfonyl][2,3,4-trimethyl-5-(4-morpholinylcarbonyl)phenyl]amino]methyl 2,2-dimethylpropanoate] | 20 | 80 |  |
| CCc1cc(C)c(C2=NOC3(CCCC3)C2)cc1NS(=O)(=O)C(F)(F)F [Compound 311] | 0 | 0 |  |
| CCC1ON=C(c2cc(NS(=O)(=O)C(F)(F)F)c(C)cc2C)C1CC (stereo not drawn) [Compound 346] | 0 | 10 |  |
| Cc1c(NS(=O)(=O)C(F)(F)F)cc(C(=O)N2CCC(C)CC2)c(C)c1C [Compound 366] | 30 | 70 |  |
| Cc1cc(F)c(NS(=O)(=O)C(F)(F)F)cc1C1=NOC2(CCCC2)C1 [Compound 303] | 0 | 0 |  |
| Cc1c(C(=O)N2CCOCC2)cc(NS(=O)(=O)C(F)(F)F)c(Cl)c1F [Compound 321] | 50 | 90 |  |
| C#CCN(C)C(=O)c1cc(N(COC(=O)C(C)(C)C)S(=O)(=O)C(F)(F)F)c(C)c(C)c1C [Compound 371] | 40 | 90 |  |
| Cc1c(C(=O)N2C[C@@H](C)O[C@@H](C)C2)cc(N(COC(=O)C(C)(C)C)S(=O)(=O)C(F)(F)F)c(C)c1C [Compound 331] | 0 | 90 |  |
| Cc1cc(C)c(N(COC(=O)OC(C)C)S(=O)(=O)C(F)(F)F)cc1C1=NOC2CCCC12 (stereo not drawn) [Compound 314] | 0 | 60 |  |
| Cc1cc(C)c(-n2nccc(C)c2=O)cc1NS(=O)(=O)C(F)(F)F [Compound 281] | 0 | 0 |  |
| Cc1cc(C)c(C2=NOC(OCC(C)C)C2)cc1NS(=O)(=O)C(F)(F)F (stereo not drawn) [Compound 322] | 20 | 30 |  |
| Cc1cc(C)c(N(COC(=O)C(C)(C)C)S(=O)(=O)C(F)(F)F)cc1C(=O)N1CCOCC1 [Compound 362] | 0 | 50 |  |
| Cc1c(NS(=O)(=O)C(F)(F)F)cc(C(=O)N(C)C)c(C)c1C [Compound 288] | 0 | 40 |  |
| Cc1cc(C)c(N(COC(=O)C(C)(C)C)S(=O)(=O)C(F)(F)F)cc1C(=O)N1CCC(F)(F)CC1 [Compound 350] | 20 | 80 |  |
| Cc1cc(C(F)(F)F)c(C2=NOC3CCCC23)cc1NS(=O)(=O)C(F)(F)F (stereo not drawn) [Compound 306] | 0 | 10 |  |
| COC1CCCN(C(=O)c2cc(NS(=O)(=O)C(F)(F)F)c(Cl)c(F)c2C)C1 (stereo not drawn) [Compound 334] | 0 | 50 |  |
| Cc1cc(C)c(C2=NOC3(CCCCC3)C2)cc1NS(=O)(=O)C(F)(F)F [Compound 197, N-[2,4-Dimethyl-5-(1-oxa-2-azaspiro[4.5]dec-2-en-3-yl)phenyl]-1,1,1-trifluoromethanesulfonamide] |  |  | pest or weed control at 125 g/ha [2, 8]: 90%; pest or weed control at 500 g/ha ([2]; 500 g ai/ha): 100%; pest or weed control at 125 g/ha (kochia (Bassia scoparia) [3]; 125 g ai/ha, read-out: Plant response rating, Kochia): 50%; pest or weed control at 500 g/ha (kochia (Bassia scoparia) [3]; 500 g ai/ha, visual injury vs untreated controls after approx. 10 days, read-out: Kochia plant response rating): 80%; pest or weed control at 125 g/ha ([4]; 125 g ai/ha, read-out: Plant response rating, Galium): 90%; pest or weed control at 500 g/ha ([4]; 500 g ai/ha, visual injury vs untreated controls after approx. 10 days, read-out: Galium plant response rating): 90%; pest or weed control at 125 g/ha (kochia (Bassia scoparia) [5]; [8]): 90%; pest or weed control at 500 g/ha (kochia (Bassia scoparia) [5]; 500 g ai/ha): 90% |
